Read-outs that look alike come from different tables or passages of the source.
How the values were obtained:
[1] = T1 relaxivity of Gd(III) complexes (Bruker mq60 NMR analyzer); assay type: physicochemical; conditions: aqueous Gd(III) complexes; for T1 relaxivity: pH 7, 59.97 MHz, 37° C.
Procedure: Gd(NE3TA) and Gd(NE3TA-Bn) were synthesized by reacting GdCl3 with NE3TA and NE3TA-Bn, respectively. NE3TA or NE3TA-Bn were mixed with GdCl3 in a molar ratio of 1 to 0.9, and the resulting mixture at pH 7 was heated to 90° C. and stirred until no free Gd(III) ions were detected using an ArsenazoIII (AAIII) assay. Relaxivity of the aqueous […] complexes (pH 7) was measured on a Bruker MQ60 NMR analyzer, and the concentration of the Gd(III) complexes was measured by ICP-MS. […] NE3TA was successfully conjugated with the most common bile acid, cholic acid (FIG. 41).
(§1) Relaxivity Measurements. Relaxivity measurements were acquired by taking the slope of a plot of 1/T1 (s^−1) versus concentration (mM). The longitudinal water proton relaxation times (T1) were determined using a Bruker mq60 NMR (Bruker Canada, Milton, ON, Canada) analyzer operating at 59.97 MHz and 37° C. The agent was added to Millipore water and serially diluted by 0.5 to give a series of 5 concentrations (500 μL total volume) for each relaxivity trial. The T1 was determined using an inversion recovery pulse sequence with 10 different pulse separations per sample, 4 repetitions per echo time, phase cycling, and a recycle delay that is ≥5 times the T1 of each given sample. All curves were fit using a monoexponential curve fitting formula.
Relaxivity of the aqueous Gd(III) complexes (˜pH 7) were measured on a Bruker MQ60 NMR analyzer, and the concentration of the Gd(III) complexes were measured by ICP-MS. […] As mentioned above, the on and off binding to Gd(III) of one of the pendant coordinates would have resulted enhanced relaxivity of Gd(C-NETA) compared to Gd(C-DOTA). Among the evaluated Gd(III) complexes, Gd(C-NE3TA) gives the highest T1 relaxivity at 60 MHz, probably due to increase in q. The relaxation rates for the Gd(III) chelates are dominated by the inner-sphere dipolar coupling between the coordinated water molecule and the paramagnetic Gd(III). The measured relaxivities arise from the exchange between the coordinated water molecule and the surrounding water molecules in solution. […] No indication of Gd(III) dissociation is evident from the relaxivity data, which is in agreement with the in vitro serum stability and in vivo biodistribution studies.
as §1, with “The T1 relaxivity was determined” for “The T1 was determined”

[2] = cited from earlier work
[3] = In vitro serum stability of radiolabeled C-NE3TA complexes in human serum (SE-HPLC); assay type: in vitro ADME; conditions: 37° C., up to 11 days
Procedure: C-NE3TA was radiolabeled with ^90Y, ^177Lu, ^203Pb, ^205/6Bi, or ^153Gd as previously described (Chong, H. S.; Milenic, D. E.; Garmestani, K.; Brady, E. D.; Arora, H.; Pfiester, C.; Brechbiel, M. W., Nucl. Med. Biol. 2006, 33, 459-67; Chong H S, Garmestani K, Bryant Jr., L H Milenic D E, Overstreet T, Birch N, Le N, Brady E D, Brechbiel M W. J. Med. Chem. 2006, 49, 2055-2062). In vitro serum stability of the radiolabeled complexes purified via ion-exchange chromatography was performed to determine if C-NE3TA labeled with the radioisotopes remained stable without transchelation or loss of their respective radionuclide in human serum. This was assessed by measuring the transfer of radionuclide from the complex to serum proteins over the course of 11 days.
In vitro stability of the radiolabeled metal complexes. The stability of the purified radiolabeled complexes was evaluated in human serum (Gemini Bioproducts, Woodland, Calif.) for up to 11 days. The serum stability of the radiolabeled complexes was assessed by measuring the transfer of the radionuclide from each complex to serum proteins using SE-HPLC methods. Radiolabeled complexes were diluted to an appropriate volume that allowed for preparation of multiple samples containing 5-10 μCi and were filter-sterilized using a Millex-GV 0.22 μm filter. This stock solution was then mixed with 1400 μL of sterile normal human serum. Aliquots (200 μL) were drawn and separated into individual tubes for subsequent analysis using aseptic technique. The samples were incubated at 37° C., and at designated intervals, subjected to analysis by SE-HPLC. Samples were loaded onto the HPLC and eluted with PBS, pH 7.4 isocratically at 1 mL/min. […] Radioactivity associated with a transfer to serum proteins generally appeared at ˜6 min.

[4] = In vivo biodistribution of radiolabeled complexes in normal athymic mice; conditions: for percent injected dose per gram, Blood / percent injected dose per gram, Femur / percent injected dose per gram, Heart / percent injected dose per gram, Kidney / percent injected dose per gram, Liver / percent injected dose per gram, Lung / percent injected dose per gram, Spleen: non-tumor bearing mice, ± SD
Procedure: The in vivo stability of the radiolabeled complexes was evaluated by performing biodistribution studies in normal athymic mice. Selected organs and the blood were harvested at five time points, 0.5, 1, 4, 8, and 24 h post-injection and the radioactivity measured. […] C-NE3TA radiolabeled with ^153Gd was almost completely cleared from blood, liver, spleen, lung, heart, and femur in less than 4 hours, and radioactivity level in the kidney was 0.16%±0.11 ID/g at 24 hour post-injection (Table 9).
In vivo biodistribution studies oh the radiolabeled metal complexes. Female athymic mice were obtained from Charles River Laboratories (Wilmington, Mass.) at 4-6 weeks of age. The pH of the radiolabeled ligands was adjusted to pH ˜7.0 with 0.5 M sodium bicarbonate (pH 10.5) and diluted in phosphate-buffered saline. The radiolabeled ligands ([…] for ^86Y, ^205/6Bi, ^177Lu, and ^203Pb) were administered to the mice in 200 μL of solution via tail vein injection. The mice (5 per data point) were sacrificed by exsanguination at 0.5, 1, 4, 8, and 24 h. Blood and the major organs were harvested, wet-weighed and the radioactivity measured in a γ-scintillation counter (1480 Wizard, Perkin Elmer). The percent injected dose per gram (% ID/g) was determined for each tissue. The values presented are the mean and standard deviation for each tissue.

O=C(O)CNC(Cc1ccc([N+](=O)[O-])cc1)CN1CCN(CC(=O)O)CCN(CC(=O)O)CC1.[Gd] (stereo not drawn) [Gd(C-NE3TA)]
T1 relaxivity of Gd(III) complexes of bifunctional ligands ([1]; ~pH 7, 60 MHz): 5.89 mM⁻¹ s⁻¹

O=C([O-])CN1CCN(CC(=O)[O-])CCN(CC(=O)O)CCN(CC(=O)[O-])CC1.[Gd+3] [Gd(DOTA), reference compound]
T1 relaxivity [1]: 2.97 mM⁻¹ s⁻¹

O=C(O)CNCCN1CCN(CC(=O)O)CCN(CC(=O)O)CC1.[Gd] [Gd(NE3TA)]
T1 relaxivity [1]: 3.94 mM⁻¹ s⁻¹

O=C(O)CN1CCN(CCN(CC(=O)O)CC(=O)O)CCN(CC(=O)O)CC1.[177Lu] [^177Lu-NETA]
organ uptake and blood clearance (in words) ([2]; in vivo): very low organ uptake and rapid blood clearance

O=C([O-])CNC(Cc1ccc([N+](=O)[O-])cc1)CN1CCN(CC(=O)[O-])CCN(CC(=O)[O-])CC1.[Bi+3] (stereo not drawn) [^205/6Bi-C-NE3TA]
stability in human serum (in words) [3]: no measurable loss of radioactivity
percent injected dose per gram, Blood ([4]; 0.50 hr): 0.46 ± 0.18 % ID/g
percent injected dose per gram, Femur ([4]; 0.50 hr): 0.62 ± 0.27 % ID/g
percent injected dose per gram, Heart ([4]; 0.50 hr): 0.36 ± 0.09 % ID/g
percent injected dose per gram, Kidney ([4]; 0.50 hr): 5.05±0.24 % ID/g
percent injected dose per gram, Liver ([4]; 0.50 hr): 1.01 ± 0.15 % ID/g
percent injected dose per gram, Lung ([4]; 0.50 hr): 0.56 ± 0.13 % ID/g
percent injected dose per gram, Spleen ([4]; 0.50 hr): 0.45 ± 0.24 % ID/g
percent injected dose per gram, Kidney ([4]; 0.50 hr, listed as 205/6BiC-NE3TA): 5.05 ± 0.24 % ID/g
percent injected dose per gram, Blood ([4]; 1.00 hr): 0.13 ± 0.02 % ID/g
percent injected dose per gram, Femur ([4]; 1.00 hr): 0.26 ± 0.05 % ID/g
percent injected dose per gram, Heart ([4]; 1.00 hr): 0.19 ± 0.02 % ID/g
percent injected dose per gram, Kidney ([4]; 1.00 hr): 4.69 ± 0.55 % ID/g
percent injected dose per gram, Liver ([4]; 1.00 hr): 0.80 ± 0.16 % ID/g
percent injected dose per gram, Lung ([4]; 1.00 hr): 0.25 ± 0.03 % ID/g
percent injected dose per gram, Spleen ([4]; 1.00 hr): 0.25 ± 0.02 % ID/g
percent injected dose per gram, Blood ([4]; 4.00 hr): 0.03 ± 0.00 % ID/g
percent injected dose per gram, Femur ([4]; 4.00 hr): 0.23 ± 0.06 % ID/g
percent injected dose per gram, Heart ([4]; 4.00 hr): 0.12 ± 0.01 % ID/g
percent injected dose per gram, Kidney ([4]; 4.00 hr): 3.42 ± 0.55 % ID/g
percent injected dose per gram, Liver ([4]; 4.00 hr): 0.52 ± 0.13 % ID/g
percent injected dose per gram, Lung ([4]; 4.00 hr): 0.16 ± 0.01 % ID/g
percent injected dose per gram, Spleen ([4]; 4.00 hr): 0.18 ± 0.01 % ID/g
percent injected dose per gram, Blood ([4]; 8.00 hr): 0.02 ± 0.01 % ID/g
percent injected dose per gram, Femur ([4]; 8.00 hr): 0.14 ± 0.02 % ID/g
percent injected dose per gram, Heart ([4]; 8.00 hr): 0.09 ± 0.01 % ID/g
percent injected dose per gram, Kidney ([4]; 8.00 hr): 1.99 ± 0.32 % ID/g
percent injected dose per gram, Liver ([4]; 8.00 hr): 0.37 ± 0.08 % ID/g
percent injected dose per gram, Lung ([4]; 8.00 hr): 0.13 ± 0.04 % ID/g
percent injected dose per gram, Spleen ([4]; 8.00 hr): 0.12 ± 0.02 % ID/g
percent injected dose per gram, Blood ([4]; 24.00 hr): 0.01 ± 0.00 % ID/g
percent injected dose per gram, Femur ([4]; 24.00 hr): 0.13 ± 0.01 % ID/g
percent injected dose per gram, Heart ([4]; 24.00 hr): 0.08 ± 0.02 % ID/g
percent injected dose per gram, Kidney ([4]; 24.00 hr): 0.73±0.19 % ID/g
percent injected dose per gram, Liver ([4]; 24.00 hr): 0.14 ± 0.03 % ID/g
percent injected dose per gram, Lung ([4]; 24.00 hr): 0.09 ± 0.01 % ID/g
percent injected dose per gram, Spleen ([4]; 24.00 hr): 0.13 ± 0.01 % ID/g
percent injected dose per gram, Kidney ([4]; 24.00 hr, listed as 205/6BiC-NE3TA): 0.73 ± 0.19 % ID/g
blood and organ clearance (in words) ([4]; normal athymic mice): rapidly cleared from the blood, lung, heart, and femur

O=C([O-])CN1CCN(CCN(CC(=O)[O-])CC(=O)[O-])CCN(CC(=O)[O-])CC1.[Bi+3] [^205/6Bi-NETA]
retention in liver ([2]; 0 h): 5.93±0.78 % ID/g
retention in liver ([2]; 24 h): 7.31±1.521 % ID/g
